Data published in ChEMBL document CHEMBL1145498, “A systematic interaction map of validated kinase inhibitors with Ser/Thr kinases” (Proc Natl Acad Sci U S A, 2007).

Columns and labels:
[1] = molecular target: Calcium/calmodulin-dependent protein kinase type 1G (Homo sapiens) (UniProt Q96NX5)
[2] = molecular target: Ribosomal protein S6 kinase alpha-3 (Homo sapiens) (UniProt P51812)
[3] = molecular target: Mitogen-activated protein kinase 11 (Homo sapiens, UniProt Q15759)
[4] = molecular target: T1, Lymphokine-activated killer T-cell-originated protein kinase (Homo sapiens) (UniProt Q96KB5)
T1 sequence (whole entry): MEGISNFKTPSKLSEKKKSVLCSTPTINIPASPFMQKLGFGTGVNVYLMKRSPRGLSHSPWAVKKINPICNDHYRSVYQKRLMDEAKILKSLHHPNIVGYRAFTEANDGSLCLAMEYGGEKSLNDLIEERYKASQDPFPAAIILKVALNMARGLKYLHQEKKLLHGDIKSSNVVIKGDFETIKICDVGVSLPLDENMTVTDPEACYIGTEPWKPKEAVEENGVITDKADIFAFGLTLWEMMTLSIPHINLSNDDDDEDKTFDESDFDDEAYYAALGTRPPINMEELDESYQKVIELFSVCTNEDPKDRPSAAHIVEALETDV

[5] = molecular target: Serine/threonine-protein kinase pim-2 (Homo sapiens, UniProt Q9P1W9)
[6] = molecular target: Calcium/calmodulin-dependent protein kinase type II subunit delta (Homo sapiens) (UniProt Q13557)
[7] = molecular target: Serine/threonine-protein kinase 25 (Homo sapiens) (UniProt O00506)
Chain of Serine/threonine-protein kinase 25 (Homo sapiens) (O00506 whole entry, looked up): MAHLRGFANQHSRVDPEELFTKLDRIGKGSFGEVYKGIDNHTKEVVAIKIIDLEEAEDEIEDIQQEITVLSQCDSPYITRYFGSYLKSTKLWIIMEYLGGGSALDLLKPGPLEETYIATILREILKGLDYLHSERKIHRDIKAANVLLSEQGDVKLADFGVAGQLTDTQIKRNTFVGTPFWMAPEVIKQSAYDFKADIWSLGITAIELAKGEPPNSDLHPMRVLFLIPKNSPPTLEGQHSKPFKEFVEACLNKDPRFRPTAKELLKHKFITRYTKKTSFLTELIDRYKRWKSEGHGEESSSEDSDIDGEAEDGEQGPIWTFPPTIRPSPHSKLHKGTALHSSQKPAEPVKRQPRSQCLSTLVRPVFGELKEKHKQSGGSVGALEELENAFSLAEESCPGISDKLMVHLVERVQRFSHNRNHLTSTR

[8] = molecular target: T2, Myotonin-protein kinase (Homo sapiens) (UniProt Q09013)
T2 sequence (whole entry): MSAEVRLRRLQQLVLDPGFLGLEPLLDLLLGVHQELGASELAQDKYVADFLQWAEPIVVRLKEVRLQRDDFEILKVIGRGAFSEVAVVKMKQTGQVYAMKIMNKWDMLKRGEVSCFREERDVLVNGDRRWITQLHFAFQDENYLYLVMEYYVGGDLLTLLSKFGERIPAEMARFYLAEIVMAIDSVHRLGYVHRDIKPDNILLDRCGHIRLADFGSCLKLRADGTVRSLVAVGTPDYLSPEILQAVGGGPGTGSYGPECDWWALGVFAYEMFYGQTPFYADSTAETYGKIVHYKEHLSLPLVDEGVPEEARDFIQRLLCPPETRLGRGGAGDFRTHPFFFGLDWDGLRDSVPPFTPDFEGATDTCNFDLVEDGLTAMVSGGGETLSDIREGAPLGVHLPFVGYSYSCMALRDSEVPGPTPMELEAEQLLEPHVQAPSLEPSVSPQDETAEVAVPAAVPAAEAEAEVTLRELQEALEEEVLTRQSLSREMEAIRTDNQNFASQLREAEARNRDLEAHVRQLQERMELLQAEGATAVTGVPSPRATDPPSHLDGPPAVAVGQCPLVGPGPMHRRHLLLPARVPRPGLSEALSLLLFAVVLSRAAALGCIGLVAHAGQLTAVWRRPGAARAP

[9] = molecular target: Serine/threonine-protein kinase Chk2 (Homo sapiens, UniProt O96017)
[10] = molecular target: Serine/threonine-protein kinase PLK1 (Homo sapiens) (UniProt P53350)
Chain of Serine/threonine-protein kinase PLK1 (Homo sapiens) (P53350 whole entry): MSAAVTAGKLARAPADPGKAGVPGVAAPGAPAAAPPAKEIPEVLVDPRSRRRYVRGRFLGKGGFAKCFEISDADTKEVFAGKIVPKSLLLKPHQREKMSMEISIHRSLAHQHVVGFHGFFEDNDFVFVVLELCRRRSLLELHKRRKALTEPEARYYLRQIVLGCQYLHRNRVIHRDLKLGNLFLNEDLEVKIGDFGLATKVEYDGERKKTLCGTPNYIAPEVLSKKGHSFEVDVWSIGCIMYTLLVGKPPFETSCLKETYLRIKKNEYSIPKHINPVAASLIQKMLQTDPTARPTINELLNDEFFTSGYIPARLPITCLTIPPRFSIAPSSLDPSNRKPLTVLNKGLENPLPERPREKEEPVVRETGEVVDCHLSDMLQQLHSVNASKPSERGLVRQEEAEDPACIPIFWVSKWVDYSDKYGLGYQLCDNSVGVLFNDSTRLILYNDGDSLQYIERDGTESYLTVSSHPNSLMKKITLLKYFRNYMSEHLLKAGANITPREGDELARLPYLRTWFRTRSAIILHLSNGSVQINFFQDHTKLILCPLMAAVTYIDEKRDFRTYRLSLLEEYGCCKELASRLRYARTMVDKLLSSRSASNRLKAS

[11] = molecular target: T3, Calcium/calmodulin-dependent protein kinase type IV (Homo sapiens) (UniProt Q16566)
T3 sequence (whole entry): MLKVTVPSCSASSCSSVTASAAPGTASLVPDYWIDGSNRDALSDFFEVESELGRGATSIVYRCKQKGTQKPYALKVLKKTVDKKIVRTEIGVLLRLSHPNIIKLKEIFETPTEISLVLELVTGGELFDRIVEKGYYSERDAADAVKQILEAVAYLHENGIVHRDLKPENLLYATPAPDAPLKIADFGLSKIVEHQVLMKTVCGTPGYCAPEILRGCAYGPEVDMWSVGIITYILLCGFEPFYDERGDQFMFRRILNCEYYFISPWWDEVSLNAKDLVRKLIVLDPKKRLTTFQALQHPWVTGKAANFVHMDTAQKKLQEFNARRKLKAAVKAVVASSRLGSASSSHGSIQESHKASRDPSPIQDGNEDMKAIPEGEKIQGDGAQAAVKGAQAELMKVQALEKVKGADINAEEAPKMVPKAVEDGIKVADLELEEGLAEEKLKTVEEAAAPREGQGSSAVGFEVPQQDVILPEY

[12] = molecular target: Serine/threonine-protein kinase RIO2 (Homo sapiens) (UniProt Q9BVS4)
Chain of Serine/threonine-protein kinase RIO2 (Homo sapiens) (Q9BVS4 whole entry, looked up): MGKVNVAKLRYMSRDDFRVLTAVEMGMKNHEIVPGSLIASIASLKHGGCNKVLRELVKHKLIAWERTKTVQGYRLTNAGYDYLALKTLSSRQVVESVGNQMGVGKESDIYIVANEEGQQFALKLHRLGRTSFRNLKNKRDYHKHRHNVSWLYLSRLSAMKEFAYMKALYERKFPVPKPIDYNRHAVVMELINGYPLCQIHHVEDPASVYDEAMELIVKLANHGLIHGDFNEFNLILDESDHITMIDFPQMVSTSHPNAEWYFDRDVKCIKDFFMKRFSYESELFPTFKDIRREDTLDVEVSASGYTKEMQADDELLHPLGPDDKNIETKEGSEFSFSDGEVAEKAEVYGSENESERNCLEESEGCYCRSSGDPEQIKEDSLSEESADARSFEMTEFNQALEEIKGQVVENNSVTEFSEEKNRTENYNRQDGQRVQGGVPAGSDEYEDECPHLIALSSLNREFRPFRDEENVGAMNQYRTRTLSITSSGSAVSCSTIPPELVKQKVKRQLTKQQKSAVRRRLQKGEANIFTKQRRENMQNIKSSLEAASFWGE

[13] = molecular target: T4, 3-phosphoinositide-dependent protein kinase 1 (Homo sapiens) (UniProt O15530)
T4 sequence (whole entry): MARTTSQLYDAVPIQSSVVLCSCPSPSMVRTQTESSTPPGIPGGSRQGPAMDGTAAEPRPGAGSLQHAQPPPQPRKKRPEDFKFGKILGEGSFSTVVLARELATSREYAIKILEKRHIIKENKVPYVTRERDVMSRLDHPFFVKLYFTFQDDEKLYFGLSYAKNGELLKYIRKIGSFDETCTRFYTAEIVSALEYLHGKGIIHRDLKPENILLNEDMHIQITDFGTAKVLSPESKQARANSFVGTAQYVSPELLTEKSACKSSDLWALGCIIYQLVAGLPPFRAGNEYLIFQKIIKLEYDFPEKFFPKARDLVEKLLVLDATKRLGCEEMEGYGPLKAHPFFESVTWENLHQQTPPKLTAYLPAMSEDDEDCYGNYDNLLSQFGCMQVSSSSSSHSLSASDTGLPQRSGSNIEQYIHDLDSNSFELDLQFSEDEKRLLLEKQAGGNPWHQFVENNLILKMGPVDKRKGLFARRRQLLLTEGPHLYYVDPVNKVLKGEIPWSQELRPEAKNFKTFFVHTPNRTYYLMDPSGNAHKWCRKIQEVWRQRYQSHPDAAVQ

[14] = molecular target: Calcium/calmodulin-dependent protein kinase type II subunit gamma (Homo sapiens) (UniProt Q13555)
[15] = molecular target: TRAF2 and NCK-interacting protein kinase (Homo sapiens) (UniProt Q9UKE5)
Chain of TRAF2 and NCK-interacting protein kinase (Homo sapiens) (Q9UKE5 whole entry, looked up): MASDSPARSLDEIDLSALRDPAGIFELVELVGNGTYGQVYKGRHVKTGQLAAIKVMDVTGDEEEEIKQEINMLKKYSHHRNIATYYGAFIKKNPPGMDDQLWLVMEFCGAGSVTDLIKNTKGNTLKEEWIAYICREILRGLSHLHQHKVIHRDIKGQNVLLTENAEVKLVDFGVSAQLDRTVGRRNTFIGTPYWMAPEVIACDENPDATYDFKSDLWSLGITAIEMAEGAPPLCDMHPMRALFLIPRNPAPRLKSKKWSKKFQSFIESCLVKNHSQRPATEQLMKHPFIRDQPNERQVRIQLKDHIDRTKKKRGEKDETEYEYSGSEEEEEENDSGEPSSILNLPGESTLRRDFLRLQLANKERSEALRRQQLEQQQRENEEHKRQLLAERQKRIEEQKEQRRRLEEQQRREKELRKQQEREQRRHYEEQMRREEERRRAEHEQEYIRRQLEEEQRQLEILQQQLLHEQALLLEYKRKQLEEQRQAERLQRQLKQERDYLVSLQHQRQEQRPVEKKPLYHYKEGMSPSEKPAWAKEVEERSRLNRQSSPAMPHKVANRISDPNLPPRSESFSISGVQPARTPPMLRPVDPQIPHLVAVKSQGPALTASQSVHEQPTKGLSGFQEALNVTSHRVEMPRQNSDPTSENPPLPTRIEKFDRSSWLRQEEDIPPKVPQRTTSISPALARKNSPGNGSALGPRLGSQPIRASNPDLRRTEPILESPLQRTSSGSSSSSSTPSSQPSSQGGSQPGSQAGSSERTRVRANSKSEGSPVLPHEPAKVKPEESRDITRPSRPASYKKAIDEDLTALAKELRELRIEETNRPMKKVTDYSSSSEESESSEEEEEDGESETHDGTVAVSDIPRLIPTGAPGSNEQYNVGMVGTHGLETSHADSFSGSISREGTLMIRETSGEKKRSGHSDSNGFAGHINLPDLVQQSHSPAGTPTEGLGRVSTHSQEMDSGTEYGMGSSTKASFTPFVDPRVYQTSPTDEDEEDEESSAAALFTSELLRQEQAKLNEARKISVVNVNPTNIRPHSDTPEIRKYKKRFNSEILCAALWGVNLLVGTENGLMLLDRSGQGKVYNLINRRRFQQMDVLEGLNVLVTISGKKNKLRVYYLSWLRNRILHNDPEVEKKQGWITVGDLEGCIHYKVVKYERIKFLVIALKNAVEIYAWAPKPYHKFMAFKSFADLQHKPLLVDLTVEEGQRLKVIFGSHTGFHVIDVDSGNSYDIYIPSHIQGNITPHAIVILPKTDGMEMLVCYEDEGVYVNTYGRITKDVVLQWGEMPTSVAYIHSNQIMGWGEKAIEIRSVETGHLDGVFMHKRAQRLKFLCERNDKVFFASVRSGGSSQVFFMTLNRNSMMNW

[16] = molecular target: Serine/threonine-protein kinase pim-3 (Homo sapiens) (UniProt Q86V86)
[17] = molecular target: Serine/threonine-protein kinase 16 (Homo sapiens) (UniProt O75716)
Chain of Serine/threonine-protein kinase 16 (Homo sapiens) (O75716 whole entry): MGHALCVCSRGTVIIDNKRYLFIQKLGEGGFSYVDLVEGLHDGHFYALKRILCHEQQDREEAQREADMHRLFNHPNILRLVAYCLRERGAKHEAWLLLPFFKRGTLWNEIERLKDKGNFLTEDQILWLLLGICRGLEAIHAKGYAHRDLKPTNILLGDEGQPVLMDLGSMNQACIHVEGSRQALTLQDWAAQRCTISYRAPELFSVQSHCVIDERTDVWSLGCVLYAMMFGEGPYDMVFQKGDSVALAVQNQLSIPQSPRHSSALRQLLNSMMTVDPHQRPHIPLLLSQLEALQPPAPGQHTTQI

[18] = molecular target: Calcium/calmodulin-dependent protein kinase type II subunit alpha (Homo sapiens) (UniProt Q9UQM7)
Chain of Calcium/calmodulin-dependent protein kinase type II subunit alpha (Homo sapiens) (Q9UQM7 whole entry): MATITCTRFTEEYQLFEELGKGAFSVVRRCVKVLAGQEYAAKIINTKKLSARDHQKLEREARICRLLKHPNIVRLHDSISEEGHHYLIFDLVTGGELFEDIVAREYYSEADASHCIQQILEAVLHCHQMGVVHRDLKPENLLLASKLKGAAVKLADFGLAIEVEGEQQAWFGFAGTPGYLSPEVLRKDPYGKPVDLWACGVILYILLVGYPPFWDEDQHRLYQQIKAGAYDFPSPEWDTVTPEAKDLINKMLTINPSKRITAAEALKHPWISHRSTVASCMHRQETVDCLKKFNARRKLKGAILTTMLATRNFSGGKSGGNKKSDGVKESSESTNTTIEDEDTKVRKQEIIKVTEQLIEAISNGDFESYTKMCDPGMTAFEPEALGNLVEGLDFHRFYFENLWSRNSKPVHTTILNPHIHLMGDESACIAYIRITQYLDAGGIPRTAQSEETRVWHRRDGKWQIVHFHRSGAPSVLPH

Chain of Calcium/calmodulin-dependent protein kinase type 1G (Homo sapiens) (Q96NX5 whole entry): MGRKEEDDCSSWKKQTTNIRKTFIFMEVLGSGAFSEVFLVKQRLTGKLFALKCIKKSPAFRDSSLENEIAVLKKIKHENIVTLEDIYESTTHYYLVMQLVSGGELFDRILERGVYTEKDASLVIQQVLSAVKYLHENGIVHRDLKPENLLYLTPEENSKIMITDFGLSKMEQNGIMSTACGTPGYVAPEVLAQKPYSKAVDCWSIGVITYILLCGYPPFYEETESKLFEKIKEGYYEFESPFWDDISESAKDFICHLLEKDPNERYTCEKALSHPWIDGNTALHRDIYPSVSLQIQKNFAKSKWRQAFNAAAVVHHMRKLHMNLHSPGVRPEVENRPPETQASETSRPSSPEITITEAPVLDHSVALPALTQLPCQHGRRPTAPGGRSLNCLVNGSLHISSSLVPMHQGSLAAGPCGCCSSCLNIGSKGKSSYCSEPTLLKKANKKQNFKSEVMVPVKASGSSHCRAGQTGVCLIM
Chain of Mitogen-activated protein kinase 11 (Q15759 whole entry): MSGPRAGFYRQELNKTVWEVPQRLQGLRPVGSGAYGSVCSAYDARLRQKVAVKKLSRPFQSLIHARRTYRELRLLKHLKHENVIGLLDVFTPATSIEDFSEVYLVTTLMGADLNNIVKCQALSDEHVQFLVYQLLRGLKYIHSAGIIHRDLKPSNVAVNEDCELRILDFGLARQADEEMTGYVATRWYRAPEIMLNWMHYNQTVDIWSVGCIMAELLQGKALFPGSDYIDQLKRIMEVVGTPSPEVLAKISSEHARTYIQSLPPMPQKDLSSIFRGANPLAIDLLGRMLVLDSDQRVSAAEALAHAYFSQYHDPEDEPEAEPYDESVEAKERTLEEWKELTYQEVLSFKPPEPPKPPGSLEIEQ

| SMILES | ΔTm [1] [°C] | ΔTm [2] [°C] | ΔTm [3] [°C] | ΔTm [4] [°C] | ΔTm [5] [°C] | ΔTm [6] [°C] | ΔTm [7] [°C] | ΔTm [8] [°C] | ΔTm [9] [°C] | ΔTm [10] [°C] | ΔTm [11] [°C] | ΔTm [12] [°C] | ΔTm [13] [°C] | ΔTm [14] [°C] | ΔTm [15] [°C] | ΔTm [16] [°C] | ΔTm [17] [°C] | ΔTm [18] [°C] |
| --- | --- | --- | --- | --- | --- | --- | --- | --- | --- | --- | --- | --- | --- | --- | --- | --- | --- | --- |
| O=C1Nc2ccccc2/C1=C/c1cnc[nH]1 | 1.2 | 5.8 | 0.4 | 0.1 | 1.9 | -0.3 | 6.3 | 0.8 | 3 | 1.3 | 0.7 | 1.3 | 1.3 | 1.2 | 6.1 | 3.3 | 7.5 | 0.7 |
| Cc1cc(C=C2C(=O)C=CC2=O)cc(C)c1O | -0.4 | 1.8 | 2.3 | 0.2 | -5.7 | 1.1 | 0.4 | 0.3 | 2.5 | 0.6 | -0.1 | 0.7 | -0.4 | 0.3 | -4.1 | 3.6 | 3.2 | 1.2 |
| COc1cccc(-c2cc(=O)c3ccccc3o2)c1N | -0.2 | -0.1 | 0.2 | 1.2 | 0.2 | 0.3 | 0.5 | -0.2 | -0.5 | 0.3 | -0.1 | 0.5 | -0.2 | 0.1 | -0.1 | 0.7 | 0.6 | -0.5 |
| CC(C)n1cnc2/c(=N/c3cccc(Cl)c3)nc(NCCO)[nH]c21 | 0.1 | 4.6 | -0.1 | -0.1 | 0.6 | -0.4 | 2.9 | 0.1 | 1.7 | 7.5 | 1.2 | 1 | 0 | 1.1 | 3.1 | 2.3 | 2.6 | 0.7 |
| O=C1c2ccccc2-[n+]2ccc3c([nH]c4ccccc43)c21 [FASCAPLYSIN CHLORIDE] | -3.5 | -0.1 | -1.3 | 0.6 | -2.4 | -2.9 | -1.5 | -0.9 | 4.9 | 0.8 | 0.7 | -0.9 | -2.7 | -1.8 | -0.9 | 0 | -0.1 | -0.5 |
| CCOc1cc2ncnc(Nc3cccc(Br)c3)c2cc1OCC | 0.4 | 2.5 | 2.2 | 0.1 | 1.1 | 0.6 | 1.5 | 0.5 | 2.6 | 0.2 | 0.3 | 3.5 | -0.9 | 0.5 | 3.1 | 2.7 | 0.9 | 0.7 |
| N#CCCc1ccc2c(c1)-c1[nH]c3ccc([N+](=O)[O-])cc3c1CC(=O)N2 [ALSTERPAULLONE 2] | 1.6 | 4.1 | 0.5 | 0 | 1.4 | -0.3 | 4.2 | 4.8 | 8.2 | 0.4 | 0.4 | 1.2 | -0.4 | 0.1 | 5.4 | 1.9 | 3 | 0.4 |
| COc1cc(C[C@H]2C(=O)OC[C@@H]2Cc2ccc(OC)c(OC)c2)ccc1O [ARCTIGENIN] | -0.3 | -0.2 | -0.2 | -0.7 | 0 | 0.2 | 0.1 | 1.4 | -0.3 | 0.1 | -0.5 | -0.2 | 0 | 0.3 | -0.2 | 0.6 | 0 | 0.1 |
